Where two headings read alike, the source gives them in different places. Starred links: 1 amine or outer side, 2 acyl side, 3 side chain; linkers in the order of their positions; H or OH if unused. Positions of bridges follow the written chain, without caps; N, C: chain ends. Non-standard residues stand in square brackets, D forms with d. Residues, ends and D or L forms follow the SMILES beside them. *: point of attachment. Orn(4R-OH,5R-OCH2CH2NMe3+) = C[N+](C)(C)CCO[C@@H](N[*:3])[C@H](O)C[C@H](N[*:1])C(=O)[*:2]; pTerphenylCO(4''-OnC5H11) = CCCCCOc1ccc(-c2ccc(-c3ccc(C(=O)*)cc3)cc2)cc1; hTyr(3S-OH,4S-OH) = N[C@H](C(=O)O)[C@H](O)[C@@H](O)c1ccc(O)cc1; Pro(3S-OH,4S-Me) = C[C@H]1CN[C@H](C(=O)O)[C@H]1O; Hyp = O=C(O)[C@@H]1C[C@@H](O)CN1
Experiments:
[1] = Protein binding by ultracentrifugation, mouse plasma; type: in vitro ADME; conditions: read-out: percent of bound CD101, mean (protein binding) (converted)
Procedure: Concentrations in plasma ranging from 7 to 60 μg/mL were tested and resulting samples were analyzed by LC-MS/MS.

[2] = Plasma and lung epithelial lining fluid (ELF) concentrations in ICR mice, 20 mg/kg IP; type: in vivo, mouse; conditions: for Kp / half-life: 20 mg/kg
Procedure: At pre-dose, 1, 3, 6, 12, 24, 48, and 72 hours post-dose, 3 mice/timepoint were anesthetized/euthanized for blood collection (plasma) and bronchoalveolar lavage fluid (BALF) collection with 2×0.5 mL flushes of saline. Urea levels for plasma/BALF normalization for the volume of lung epithelial lining fluid (ELF) calculation were quantified using a commercially-available spectrophotometry-based assay. CD101 concentrations in plasma/BALF samples were measured by LC with electrospray ionization tandem mass spectrometric (LC-MS/MS) detection.
Urea for plasma/BALF normalization for ELF volume were quantified using spectrophotometry. CD101 concentrations in plasma/BALF samples were measured by LC-MS/MS. Total plasma concentrations were corrected for protein binding (99.2%).

[3] = system: A. fumigatus ATCC 13073; assay: Disseminated aspergillosis, treatment, neutropenic ICR mice (Example 17); type: in vivo, Aspergillus fumigatus
Description: Survival monitored for ≥10 days.

[4] = system: aspergillosis; assay: Human subject with aspergillosis, single oral dose (Example 4); type: in vivo; conditions: single dose of 50 mg-1200 mg acetate salt of CD101, oral formulation
Procedure: A human subject is diagnosed with aspergillosis using standard diagnostic procedures. The subject receives treatment with a single dose of 50 mg-1200 mg (e.g., 75±25 mg, 100±25 mg, 150±50 mg, 200±50 mg, 250±50 mg, 300±50 mg, 350±50 mg, 400±50 mg, 450±50 mg, 500±100 mg, 600±100 mg, 700±100 mg, 800±100 mg, 900±50 mg, 1000 mg±100 mg, or 1100±100 mg) of the acetate salt of CD101 administered in an oral formulation (e.g., in a pill, capsule, or liquid formulation). No other antifungal treatment is provided to the subject within one to three weeks before or after administration of the single dose CD101 treatment.

[5] = Pharmacokinetics of CD101 after single 30 mg/kg SC (vs IV) dose in monkeys; type: in vivo; conditions: cynomolgus monkey, plasma; for half-life: 30 mg/kg
Procedure: Previous toxicology studies by the IV route of administration conducted in cynomolgus monkeys have shown CD101 to be safe and well tolerated at up to at least 30 mg/kg, which generates very high systemic exposures upon initial infusion of CD101 into the bloodstream. Therefore, only local tolerability (and PK) of CD101 by SC administration required evaluation. […] Plasma concentrations were then quantified by liquid chromatography with tandem mass spectrometric detection (LC-MS/MS). Bioavailability from SC dosing was calculated by comparing the calculated area under the concentration-time profile (AUC) from SC against the AUC from IV administration of the same dose.

[6] = system: C. glabrata; assay: In vitro susceptibility testing (CLSI M27-A3), C. glabrata; type: cell-based, Candida glabrata; conditions: Nakaseomyces glabratus, 24 h
Procedure: (§1) Ten clinical Candida strains were used for the in vivo treatment studies, including four C. albicans, three C. glabrata, and three C. parapsilosis strains (Table 15). This group was selected to encompass phenotypic variability in susceptibility to triazoles and echinocandins and based on similar fitness in the animal model as defined by the amount of growth in control animals over 24 h. The organisms were maintained, grown, and quantified on Sabouraud's dextrose agar (SDA) plates.
(§2) In vitro susceptibility testing. All isolates were tested in accordance with the standards in CLSI document M27-A3. The MICs were determined visually after 24 h of incubation as the lowest concentration of drug that causes a significant diminution (50%) of growth compared to controls. MICs were determined on three separate occasions in duplicate.

[7] = system: C. parapsilosis; assay: In vitro susceptibility testing (CLSI M27-A3), C. parapsilosis; type: cell-based, Candida parapsilosis; conditions: Lodderomyces parapsilosis, 24 h
Procedure: as §1, §2

[8] = system: C. albicans SC-5314 biofilms; assay: Time lapse microscopy of biofilm formation; type: cell-based, Candida albicans; conditions: CD101 0.25 μg/ml; 0 h up to 16 h
Description: The effective CD101 concentration obtained from the above experiments was used to monitor its effect on biofilm formation in real time using TLM, which involves capturing real-time images of a single frame at specific time intervals, allowing temporal monitoring of the interactions occurring between the drug and Candida biofilms. Captured images were combined in a time sequence, resulting in an animation depicting the sequence of events that occurred with the passage of time. Briefly, the discs with C. albicans (adhered for 90 min as above) were placed in a 35-mm-diameter glass-bottom Petri dish (MatTek Corp., Ashland, Mass.). […] Phase contrast images for this interaction were captured immediately from 0 h and followed up to 16-17 h on a Leica DMI 6000 B inverted microscope connected to a Retiga EXi Aqua camera (Q-imaging Vancouver British Columbia). To determine the structural changes in the maturing biofilm, both acquisition and analysis of a series of horizontal (xy) optical sections of the biofilm was done using Metamorph Imaging software (Molecular Devices, Downington, Pa.). Disc incubated with media alone was used as control.

[9] = both sexes, sc, Subcutaneous 30 mg/kg
[10] = female, animal 9707, F, 30 mg/kg SC
[11] = male, animal 9697, M, 30 mg/kg SC

CCCCCOc1ccc(-c2ccc(-c3ccc(C(=O)N[C@H]4C[C@@H](O)[C@@H](OCC[N+](C)(C)C)NC(=O)[C@@H]5[C@@H](O)[C@@H](C)CN5C(=O)[C@H]([C@@H](C)O)NC(=O)[C@H]([C@H](O)[C@@H](O)c5ccc(O)cc5)NC(=O)[C@@H]5C[C@@H](O)CN5C(=O)[C@H]([C@@H](C)O)NC4=O)cc3)cc2)cc1 [CD101] ({pTerphenylCO(4''-OnC5H11)}-[Orn(4R-OH,5R-OCH2CH2NMe3+)]T[Hyp][hTyr(3S-OH,4S-OH)]T[Pro(3S-OH,4S-Me)]; lactam 1-C)
fraction unbound at 2.5 hr [1]: 0.008
ELF half-life ([2]; 20 mg/kg IP): 32 h
mean maximum ELF concentration ([2]; 20 mg/kg IP): 15.1 µg/mL
mean maximum plasma concentration ([2]; 20 mg/kg IP): 30.1 µg/mL
plasma half-life ([2]; 20 mg/kg IP): 21.1 h
time of maximum plasma concentration ([2]; 20 mg/kg IP, first collection timepoint): 1 h
Kp ([2]; ICR, mouse, lung epithelial lining fluid (ELF), intraperitoneal, free-drug, read-out: ELF/Plasma AUClast ratio): 100
Kp ([2]; ICR, mouse, lung epithelial lining fluid (ELF), intraperitoneal, total-drug, read-out: ELF/Plasma AUClast ratio): 0.8
concentration at 72 h ([2]; ICR, mouse, lung epithelial lining fluid (ELF), intraperitoneal, 20 mg/kg IP, at 72 h): 4000 ng/mL
Kp ([2]; ICR, mouse, lung epithelial lining fluid (ELF), ip, 20 mg/kg IP, read-out: AUC exposure ratios of ELF/plasma): 0.8 to 0.95
half-life ([2]; ICR, mouse, lung epithelial lining fluid (ELF), ip, 20 mg/kg IP, read-out: ELF half-life (converted)): 31.9 h
AUC ([2]; ICR, mouse, lung epithelial lining fluid (ELF), 20 mg/kg IP, read-out: mean ELF AUC): 802 µg·h/mL
AUC(0-t) ([2]; ICR, mouse, lung epithelial lining fluid (ELF), 20 mg/kg IP, read-out: mean ELF AUC0-72): 606 µg·h/mL
half-life ([2]; ICR, mouse, plasma, ip, 20 mg/kg IP, read-out: plasma half-life (converted)): 21 h
AUC ([2]; ICR, mouse, plasma, 20 mg/kg IP, read-out: mean plasma AUC): 848 µg·h/mL
AUC(0-t) ([2]; ICR, mouse, plasma, 20 mg/kg IP, read-out: mean plasma AUC0-72): 762 µg·h/mL
survival compared to vehicle ([3]; CD101 IV/IP 0.2, 1, or 5 mg/kg BID×5d): significant increase in survival compared to vehicle
survival ([3]; single 2 mg/kg vs 0.2 mg/kg BID×5d): Survival was comparable
aspergillosis infection at follow-up visit [4]: confirmed to be resolved
half-life [5, 9]: ~124 h
AUC(0-t) [5, 9]: 2460 µg·h/mL
Cmax [5, 9]: 13400 ng/mL
Tmax [5, 9]: 72 h
AUC(0-inf) ([5]; both sexes, sc, Subcutaneous 30 mg/kg, read-out: AUCinf): 3520 µg·h/mL
bioavailability ([5]; both sexes, subcutaneous, SC 30 mg/kg vs IV at the same dose, 10-day period): 80%
half-life ([5]; iv, IV 30 mg/kg): 49.7 h
AUC(0-t) ([5]; IV 30 mg/kg): 3140 µg·h/mL
Cmax ([5]; IV 30 mg/kg): 112000 ng/mL
Tmax ([5]; IV 30 mg/kg): 1 h
AUC(0-inf) ([5]; IV 30 mg/kg, read-out: AUCinf): 3340 µg·h/mL
half-life ([5]; female, sc, animal 9707, F, 30 mg/kg SC): 171 h
AUC(0-t) [5, 10]: 2180 µg·h/mL
Cmax [5, 10]: 10900 ng/mL
Tmax [5, 10]: 48 h
AUC(0-inf) ([5]; female, animal 9707, F, 30 mg/kg SC, read-out: AUCINF_obs): 3760 µg·h/mL
half-life ([5]; male, sc, animal 9697, M, 30 mg/kg SC): 76.2 h
AUC(0-t) [5, 11]: 2740 µg·h/mL
Cmax [5, 11]: 15900 ng/mL
Tmax [5, 11]: 96 h
AUC(0-inf) ([5]; male, animal 9697, M, 30 mg/kg SC, read-out: AUCINF_obs): 3280 µg·h/mL
MIC ([6]; C. glabrata 5592): 0.125 µg/mL
MIC ([6]; C. glabrata 10956): 1 µg/mL
MIC ([6]; C. glabrata 35315): 0.5 µg/mL
MIC ([7]; C. parapsilosis 20423.072): 0.5 µg/mL
MIC ([7]; C. parapsilosis 20477.048): 1 µg/mL
MIC ([7]; C. parapsilosis 20519.069): 1 µg/mL
biofilm formation in real time [8]: only adhered cells with stunted growth, which failed to grow into mature biofilms

From patent US20190307843A1, “SINGLE DOSE METHODS FOR PREVENTING AND TREATING FUNGAL INFECTIONS” (Cidara Therapeutics, Inc., priority 2016, published 2019)
